Among the data in patent US20240262826A1, “WILD TYPE KIT INHIBITORS” (Blueprint Medicines Corporation, priority 2022, published 2024) are efflux ratio and IC50 values, retold here.

Data set [1] addresses human P-glycoprotein (P-gp, MDR1) (Homo sapiens (Human), UniProt P08183). Nature of the data set: MDCK-MDR1 cell monolayer drug transport assay (P-gp efflux ratio). The class given is in vitro ADME. As to conditions: pH 7.4, MDCK-MDR1 cells, 1 uM concentration of compound, read-out: Pgp Efflux Ratio, 1 uM. As to the method: The potential for compounds prepared according to the examples to be substrates of P-gp was evaluated using in vitro on Multidrug Resistance Mutation 1-Mardin-Darby Canine Kidney (MDCK-MDR1)) (Mardin-Darby Canine Kidney) cell monolayers overexpressing P-gp grown on permeable supports.
Preparation for cell seeding: MDCK-MDR1 cell culture medium consisting of Dulbecco's Modified Eagle's Medium (DMEM) with high glucose and L-glutamine supplemented with: 10% FBS, 0.1 mg/mL of streptomycin, 0.6 μg/mL of Kanamycin sulfate and 100 units of penicillin was prepared. 50 μL of culture medium was added to each well of the Transwell insert. The Transwell insert was removed from the reservoir and 25 mL of culture medium was added. After incubation at 37° C., 5% CO2 for 1 hour, the plates were ready for cell seeding. The cells were cultivated in T-75 flasks in a cell culture incubator set at 37° C., 5% CO2, 95% relative humidity until they reached 80-90% confluence before detaching and splitting. The cultivated cells were rinsed in T-75 flasks with 5 mL PBS and aspirated off, and then 1.5 mL trypsin/EDTA was added and incubated at 37° C. for approximately 5 to 10 minutes or until the cells detach and float. The trypsin/EDTA was inactived by adding excess serum containing medium. The cell suspension was transferred to a conical tube and the cells pelleted by centrifugation at 120×g for 10 minutes. The cells were resuspended in seeding medium at a density of 1.56×10^6 cells/mL. This cell concentration was used to seed 5.45×10^5 cells/cm^2.
Seeding and feeding of MDCK-MDR1 cells into transwell plates: 50 μL of the above cell suspension was added to each well of a previously prepared Transwell plate and the plate was incubated for 4-8 days, replacing the medium every other day beginning no sooner than 48 hours after initial plating. The medium must be replaced on the day before conducting the experiment, and the procedure for medium changes was carried out as follows. The plate was removed from the incubator and placed in a hood. The medium was aspirated from a reservoir and each Transwell was inserted. 100 μL of culture medium was added to each well of the Transwell inserts and 25 mL of culture medium to reservoir tray. The plate was returned to the incubator.
Assessment of cell monolayer integrity: When the 4-day cultured MDCK-MDR1 cells reached confluence and were differentiated, the medium was removed from the reservoir and Transwell inserts. 100 μL of prewarmed culture medium was added to each transwell insert and 25 mL was added to the reservoir tray. The electrical resistance across the monolayer was measured using a Millicell Epithelial Volt-Ohm measuring system. The electrical resistance for each well was measured and then the plate was returned to the incubator. TEER values were calculated using this formula: TEER measurement (ohms)×Area of membrane (cm2)=TEER value (ohm cm2). Any monolayer with a TEER value <42 ohms·cm2, indicating poor monolayer formation, was discarded.
Performing the drug transport assay: The MDCK-MDR1 plate was removed from the incubator and the monolayer was washed, exchanging the volume two times using pre-warmed HBSS (Hank's balanced salt solution) (10 mM HEPES, pH 7.4). The plate was then incubated at 37° C. for 30 minutes. A 1 μM compound working solution was prepared as follows: Added […] of stock solution (10 mM in DMSO) of test compound and control compounds (Metoprolol, Prazosin and Imatinib) in one 96 well plate, then added 98 μL of DMSO into the same well to obtain 0.2 mM stock solutions (note a stock solution was further diluted 1:10 for eventually making a 0.1 uM compound working solution). Transfered 3 μL of 0.2 mM solution into 597 μL of transport buffer in one 96 well plate to prepare the 1 μM compound working solution. The plate was shaken at 1000 rpm for 10 min.

The target of data set [2] is wild type c-kit (Homo sapiens (Human), UniProt P10721). Nature of the data set: PathScan phospho c-kit (Tyr719) sandwich ELISA in SCF-stimulated M-07e cells (pKIT assay). The format is cell-based. The settings on record: ELISA assay (values not marked *). Put shortly: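 Tyr719-phosphorylated c-kit was measured by colorimetric (TMB) sandwich ELISA in lysates of M-07e cells. Cells were starved 4 h without serum or GM-CSF, dosed 60 min at 37 °C with compound (8 points, duplicate, 0.25% DMSO), and stimulated 10 min with human SCF (500 ng/mL as added). IC50 values came from 4-parameter logistic regression.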
Chain of wild type c-kit (P10721 26-976): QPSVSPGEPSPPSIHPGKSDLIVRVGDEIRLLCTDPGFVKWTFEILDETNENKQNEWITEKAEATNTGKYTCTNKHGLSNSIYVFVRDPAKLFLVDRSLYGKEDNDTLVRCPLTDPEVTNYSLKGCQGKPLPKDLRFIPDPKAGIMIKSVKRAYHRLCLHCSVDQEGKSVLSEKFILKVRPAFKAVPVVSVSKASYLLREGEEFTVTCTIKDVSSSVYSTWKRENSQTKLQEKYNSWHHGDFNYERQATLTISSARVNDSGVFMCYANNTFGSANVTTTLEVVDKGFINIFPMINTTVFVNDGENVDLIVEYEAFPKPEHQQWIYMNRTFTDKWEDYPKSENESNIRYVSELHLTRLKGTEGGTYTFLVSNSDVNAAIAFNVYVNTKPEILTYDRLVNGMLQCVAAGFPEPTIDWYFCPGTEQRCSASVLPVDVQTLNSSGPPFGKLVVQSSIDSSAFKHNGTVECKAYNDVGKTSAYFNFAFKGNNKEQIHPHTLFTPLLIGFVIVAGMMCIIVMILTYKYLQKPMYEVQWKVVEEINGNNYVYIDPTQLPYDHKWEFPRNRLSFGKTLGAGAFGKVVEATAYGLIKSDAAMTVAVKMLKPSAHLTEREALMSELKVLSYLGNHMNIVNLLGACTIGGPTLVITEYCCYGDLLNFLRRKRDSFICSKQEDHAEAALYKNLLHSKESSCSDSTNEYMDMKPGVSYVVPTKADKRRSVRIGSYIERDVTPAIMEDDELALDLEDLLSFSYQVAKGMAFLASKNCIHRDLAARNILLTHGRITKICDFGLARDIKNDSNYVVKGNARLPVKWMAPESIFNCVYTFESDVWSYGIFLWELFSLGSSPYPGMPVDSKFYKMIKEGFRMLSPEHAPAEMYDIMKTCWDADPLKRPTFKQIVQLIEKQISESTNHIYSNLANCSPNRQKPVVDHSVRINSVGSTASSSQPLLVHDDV

Chain of human P-glycoprotein (P-gp, MDR1) (P08183 whole entry): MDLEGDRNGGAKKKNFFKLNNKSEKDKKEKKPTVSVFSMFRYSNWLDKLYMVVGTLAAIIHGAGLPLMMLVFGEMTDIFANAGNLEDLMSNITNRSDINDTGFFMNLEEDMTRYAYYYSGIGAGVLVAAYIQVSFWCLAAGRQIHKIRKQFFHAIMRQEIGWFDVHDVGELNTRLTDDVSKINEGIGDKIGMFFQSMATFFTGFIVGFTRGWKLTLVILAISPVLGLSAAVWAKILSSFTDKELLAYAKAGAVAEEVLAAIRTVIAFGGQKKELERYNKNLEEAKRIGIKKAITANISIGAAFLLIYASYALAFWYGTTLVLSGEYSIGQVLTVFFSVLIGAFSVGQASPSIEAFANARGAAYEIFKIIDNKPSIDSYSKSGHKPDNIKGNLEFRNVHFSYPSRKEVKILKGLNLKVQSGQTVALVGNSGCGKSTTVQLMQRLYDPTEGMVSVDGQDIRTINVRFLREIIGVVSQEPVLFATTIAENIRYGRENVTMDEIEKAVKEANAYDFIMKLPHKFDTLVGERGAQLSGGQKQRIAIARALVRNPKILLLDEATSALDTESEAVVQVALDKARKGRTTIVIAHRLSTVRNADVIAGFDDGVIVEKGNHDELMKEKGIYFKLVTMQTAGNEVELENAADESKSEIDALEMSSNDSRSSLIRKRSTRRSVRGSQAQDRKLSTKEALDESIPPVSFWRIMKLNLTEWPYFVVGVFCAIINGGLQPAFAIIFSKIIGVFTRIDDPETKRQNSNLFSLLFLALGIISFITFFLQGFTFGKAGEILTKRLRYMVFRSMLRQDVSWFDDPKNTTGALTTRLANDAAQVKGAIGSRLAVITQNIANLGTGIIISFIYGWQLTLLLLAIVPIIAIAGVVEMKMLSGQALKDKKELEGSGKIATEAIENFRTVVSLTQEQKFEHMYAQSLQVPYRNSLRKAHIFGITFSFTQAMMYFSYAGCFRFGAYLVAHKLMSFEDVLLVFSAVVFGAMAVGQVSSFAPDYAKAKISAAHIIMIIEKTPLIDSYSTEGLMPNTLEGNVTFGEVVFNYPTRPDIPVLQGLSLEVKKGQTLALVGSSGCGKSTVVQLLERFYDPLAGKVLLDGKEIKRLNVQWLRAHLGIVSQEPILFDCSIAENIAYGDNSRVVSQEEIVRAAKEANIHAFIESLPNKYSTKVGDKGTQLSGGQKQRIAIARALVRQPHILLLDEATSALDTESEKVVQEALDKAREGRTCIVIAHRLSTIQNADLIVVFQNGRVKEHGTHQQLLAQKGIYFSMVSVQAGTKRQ

Take `Cc1ccc(-c2nnn(C(C)C)n2)cc1NC(=O)c1cnn2ccc(-c3cnn(CCO)c3)cc12` [Example 49, 5-(1-(2-hydroxyethyl)-1H-pyrazol-4-yl)-N-(5-(2-isopropyl-2H-tetrazol-5-yl)-2-methylphenyl)pyrazolo[1,5-a]pyridine-3-carboxamide]: in data set [1], the efflux ratio at 2 h, 1 µM is 14. Also, half-maximal inhibition in data set [2] (IC50) was put at 1.3 nM.

On to `Cc1ccc(-c2nnn(C3CC(F)(F)C3)n2)cc1NC(=O)c1cnn2ccc(N3CC[C@@H](O)C3)cc12` [Example 78, (R)-N-(5-(2-(3,3-difluorocyclobutyl)-2H-tetrazol-5-yl)-2-methylphenyl)-5-(3-hydroxypyrrolidin-1-yl)pyrazolo[1,5-a]pyridine-3-carboxamide], for which the efflux ratio at 2 h, 1 µM in data set [1] came to 13.1. Half-maximal inhibition in data set [2] (IC50) was put at 9.6 nM.

With `Cc1nn(CC2(O)CCOCC2)cc1-c1ccn2ncc(C(=O)Nc3cc(-n4nnc([C@H]5C[C@@H]5F)n4)ccc3Cl)c2c1` (single isomer, unassigned) [Example 272, N-(2-chloro-5-(5-((1R,2S)-2-fluorocyclopropyl)-2H-tetrazol-2-yl)phenyl)-5-(1-((4-hydroxytetrahydro-2H-pyran-4-yl)methyl)-3-methyl-1H-pyrazol-4-yl)pyrazolo[1,5-a]pyridine-3-carboxamide or N-(2-chloro-5-(5-((1S,2R)-2-fluorocyclopropyl)-2H-tetrazol-2-yl)phenyl)-5-(1-((4-hydroxytetrahydro-2H-pyran-4-yl)methyl)-3-methyl-1H-pyrazol-4-yl)pyrazolo[1,5-a]pyridine-3-carboxamide], the efflux ratio at 2 h, 1 µM in data set [1] stood at 7. Further, the IC50 (commonly the concentration that gives 50% inhibition) in data set [2] came to 0.9 nM.

As for `COC(=O)N1CC(c2cnn(-c3ccc(C)c(NC(=O)c4cnn5ccc(NCC6COC6)cc45)c3)n2)C1` [Example 140, methyl 3-(2-(4-methyl-3-(5-((oxetan-3-ylmethyl)amino)pyrazolo[1,5-a]pyridine-3-carboxamido)phenyl)-2H-1,2,3-triazol-4-yl)azetidine-1-carboxylate], the efflux ratio at 2 h, 1 µM in data set [1] turned out to be 72.2. Besides, in data set [2], the IC50 was found to be 24.1 nM.

In the case of `COC(=O)N1CC(c2nnn(-c3ccc(C)c(NC(=O)c4cnn5ccc(N6CCN(C)CC6)cc45)c3)n2)C1` [Example 112, methyl 3-(2-(4-methyl-3-(5-(4-methylpiperazin-1-yl)pyrazolo[1,5-a]pyridine-3-carboxamido)phenyl)-2H-tetrazol-5-yl)azetidine-1-carboxylate], the efflux ratio at 2 h, 1 µM in data set [1] stood at 15.7. For the same molecule, the half-inhibitory concentration (IC50) in data set [2] worked out at 43.4 nM.

Turning to `Cc1ccc(-n2nnc(C3CC3)n2)cc1NC(=O)c1cnn2ccc(-c3cnn(CCO)c3)cc12` [Example 52, N-(5-(5-cyclopropyl-2H-tetrazol-2-yl)-2-methylphenyl)-5-(1-(2-hydroxyethyl)-1H-pyrazol-4-yl)pyrazolo[1,5-a]pyridine-3-carboxamide], the efflux ratio at 2 h, 1 µM in data set [1] amounted to 5.9. Moreover, the IC50 in data set [2] stood at 0.7 nM.

On to `CCOC(=O)N1CC(n2nnc(-c3ccc(C)c(NC(=O)c4cnn5ccc(NC)cc45)c3)n2)C1` [Example 126, ethyl 3-(5-(4-methyl-3-(5-(methylamino)pyrazolo[1,5-a]pyridine-3-carboxamido)phenyl)-2H-tetrazol-2-yl)azetidine-1-carboxylate], for which the efflux ratio at 2 h, 1 µM in data set [1] stood at 15.9. This molecule yielded an IC50 in data set [2] of 10.3 nM.

In the case of `Cc1ccc(-c2nnn(C)n2)cc1NC(=O)c1cnn2ccc(-c3cnn(C[C@@H](C)O)c3)cc12` (mixture of isomers) [Example 53, (R)-5-(1-(2-hydroxypropyl)-1H-pyrazol-4-yl)-N-(2-methyl-5-(2-methyl-2H-tetrazol-5-yl)phenyl)pyrazolo[1,5-a]pyridine-3-carboxamide and (S)-5-(1-(2-hydroxypropyl)-1H-pyrazol-4-yl)-N-(2-methyl-5-(2-methyl-2H-tetrazol-5-yl)phenyl)pyrazolo[1,5-a]pyridine-3-carboxamide], the efflux ratio at 2 h, 1 µM in data set [1] stood at 10.9. The molecule further had an IC50 in data set [2] of 1.5 nM.

As for `COCCOCCNc1ccn2ncc(C(=O)Nc3cc(-c4nnn(C5CN(C(=O)OC)C5)n4)ccc3C)c2c1` [Example 146, methyl 3-(5-(3-(5-((2-(2-methoxyethoxy)ethyl)amino)pyrazolo[1,5-a]pyridine-3-carboxamido)-4-methylphenyl)-2H-tetrazol-2-yl)azetidine-1-carboxylate], the efflux ratio at 2 h, 1 µM in data set [1] came out at 15.4. Moreover, 88.8 nM corresponded to half-maximal inhibition in data set [2] (IC50).

In the case of `COC[C@](C)(O)Cn1cc(-c2ccn3ncc(C(=O)Nc4cc(-c5nnn(C6CC6)n5)ccc4C)c3c2)cn1` (single isomer, unassigned) [Example 267, (R)-N-(5-(2-cyclopropyl-2H-tetrazol-5-yl)-2-methylphenyl)-5-(1-(2-hydroxy-3-methoxy-2-methylpropyl)-1H-pyrazol-4-yl)pyrazolo[1,5-a]pyridine-3-carboxamide or (S)-N-(5-(2-cyclopropyl-2H-tetrazol-5-yl)-2-methylphenyl)-5-(1-(2-hydroxy-3-methoxy-2-methylpropyl)-1H-pyrazol-4-yl)pyrazolo[1,5-a]pyridine-3-carboxamide], in data set [1], the efflux ratio at 2 h, 1 µM is 2.9. Also, in data set [2], 1.4 nM corresponded to half-maximal inhibition (IC50).

Regarding `Cc1ccc(-c2nnn(C3CC(F)(F)C3)n2)cc1NC(=O)c1cnn2ccc(N3CC[C@H](O)C3)cc12` [Example 62, (S)-N-(5-(2-(3,3-difluorocyclobutyl)-2H-tetrazol-5-yl)-2-methylphenyl)-5-(3-hydroxypyrrolidin-1-yl)pyrazolo[1,5-a]pyridine-3-carboxamide], the efflux ratio at 2 h, 1 µM in data set [1] worked out at 11. Besides, the concentration for half-maximal inhibition (IC50) in data set [2] was 6.1 nM.

For `CCS(=O)(=O)N1CC(n2nnc(-c3ccc(C)c(NC(=O)c4cnn5ccccc45)c3)n2)C1` [Example 173, N-(5-(2-(1-(ethylsulfonyl)azetidin-3-yl)-2H-tetrazol-5-yl)-2-methylphenyl)pyrazolo[1,5-a]pyridine-3-carboxamide], the efflux ratio at 2 h, 1 µM in data set [1] came to 3.5. Besides, the IC50 in data set [2] is 12 nM.

Regarding `Cc1ccc(-c2nnn(C3CN(S(C)(=O)=O)C3)n2)cc1NC(=O)c1cnn2ccc(COCC(F)F)cc12` [Example 154, 5-((2,2-difluoroethoxy)methyl)-N-(2-methyl-5-(2-(1-(methylsulfonyl)azetidin-3-yl)-2H-tetrazol-5-yl)phenyl)pyrazolo[1,5-a]pyridine-3-carboxamide], the efflux ratio at 2 h, 1 µM in data set [1] was 37.6. This molecule also came in with a concentration for half-maximal inhibition (IC50) in data set [2] of 18.8 nM.

With `COC(=O)N1CC(n2nnc(-c3ccc(C)c(NC(=O)c4cnn5ccc(NCCOC(C)(C)C)cc45)c3)n2)C1` [Example 93, methyl 3-(5-(3-(5-((2-(tert-butoxy)ethyl)amino)pyrazolo[1,5-a]pyridine-3-carboxamido)-4-methylphenyl)-2H-tetrazol-2-yl)azetidine-1-carboxylate], the efflux ratio at 2 h, 1 µM in data set [1] amounted to 11.4. In data set [2], this molecule registered an IC50 of 29 nM.

On to `Cc1ccc(-c2nnn([C@H]3C[C@@H](C(F)(F)F)C3)n2)cc1NC(=O)c1cnn2ccc(N3CCC(C)(O)CC3)cc12` [Example 122, 5-(4-hydroxy-4-methylpiperidin-1-yl)-N-(2-methyl-5-(2-((1s,3s)-3-(trifluoromethyl)cyclobutyl)-2H-tetrazol-5-yl)phenyl)pyrazolo[1,5-a]pyridine-3-carboxamide or 5-(4-hydroxy-4-methylpiperidin-1-yl)-N-(2-methyl-5-(2-((1r,3r)-3-(trifluoromethyl)cyclobutyl)-2H-tetrazol-5-yl)phenyl)pyrazolo[1,5-a]pyridine-3-carboxamide], for which the efflux ratio at 2 h, 1 µM in data set [1] was found to be 12.8. This molecule came in with an IC50 in data set [2] of 0.6 nM.
